Data: patent US20250257086A1, “EGFR DEGRADATION AGENT” (Beijing Tide Pharmaceutical Co., Ltd., priority 2022, published 2025)

Target: Ba/F3 (EGFR^L858R/T790M/C797S) cells (Homo sapiens, UniProt P00533, T790M/C797S/L858R, cells depend on it)
Assay: Antiproliferative activity on Ba/F3 (EGFR L858R/T790M/C797S) cells (CTG)
Type: cell-based
Settings: 72h incubation, CTG luminescence, read-out: IC50 (nM), antiproliferative activity
Method in brief: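 Luminescent CellTiter-Glo read-out on Ba/F3 cells carrying EGFR L858R/T790M/C797S. Inhibition normalised between untreated vehicle and a 10 μM positive drug. IC50 taken from a variable-slope four-parameter fit of inhibition against log compound concentration.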

Chain of Ba/F3 (EGFR^L858R/T790M/C797S) cells (P00533 whole entry T790M/C797S/L858R): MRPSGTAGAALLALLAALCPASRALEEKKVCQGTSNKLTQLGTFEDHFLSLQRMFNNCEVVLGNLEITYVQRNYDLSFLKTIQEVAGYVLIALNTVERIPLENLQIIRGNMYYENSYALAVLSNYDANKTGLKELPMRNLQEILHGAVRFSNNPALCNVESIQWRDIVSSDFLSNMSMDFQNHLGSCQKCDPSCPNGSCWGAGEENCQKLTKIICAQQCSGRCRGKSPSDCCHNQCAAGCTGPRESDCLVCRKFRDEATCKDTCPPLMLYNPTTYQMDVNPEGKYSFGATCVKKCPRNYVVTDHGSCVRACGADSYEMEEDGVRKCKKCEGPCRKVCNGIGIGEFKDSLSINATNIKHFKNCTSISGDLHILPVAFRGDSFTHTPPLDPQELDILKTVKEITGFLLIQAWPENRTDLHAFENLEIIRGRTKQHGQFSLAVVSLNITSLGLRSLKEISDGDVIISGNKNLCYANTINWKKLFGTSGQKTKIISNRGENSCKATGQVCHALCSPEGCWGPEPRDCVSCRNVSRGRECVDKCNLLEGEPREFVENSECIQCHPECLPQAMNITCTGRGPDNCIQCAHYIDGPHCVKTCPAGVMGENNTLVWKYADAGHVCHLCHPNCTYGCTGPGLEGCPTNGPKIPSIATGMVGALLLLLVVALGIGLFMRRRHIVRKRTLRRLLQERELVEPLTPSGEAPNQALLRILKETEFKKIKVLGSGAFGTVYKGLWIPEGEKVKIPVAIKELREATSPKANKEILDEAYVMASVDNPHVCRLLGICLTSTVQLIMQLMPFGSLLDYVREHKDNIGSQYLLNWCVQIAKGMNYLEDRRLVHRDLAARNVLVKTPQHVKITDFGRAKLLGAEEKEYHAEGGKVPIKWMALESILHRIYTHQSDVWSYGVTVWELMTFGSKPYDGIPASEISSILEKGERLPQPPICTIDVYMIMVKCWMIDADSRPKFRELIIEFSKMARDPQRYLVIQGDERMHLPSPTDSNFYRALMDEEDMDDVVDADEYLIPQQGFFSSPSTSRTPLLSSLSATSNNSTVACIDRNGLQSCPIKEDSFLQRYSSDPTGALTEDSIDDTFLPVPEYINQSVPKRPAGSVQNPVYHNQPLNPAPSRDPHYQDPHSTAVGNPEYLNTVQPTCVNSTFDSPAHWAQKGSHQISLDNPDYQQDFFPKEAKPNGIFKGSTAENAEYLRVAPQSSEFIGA

| SMILES | GI50 [nM] |
| --- | --- |
| C=C(F)C(=O)Nc1cc(Nc2ncc(Br)c(Nc3ccccc3P(C)(C)=O)n2)c(OCC(F)(F)F)cc1N1CCC(N2CCN(CCCC#Cc3cccc4c3CN(C3CCC(=O)NC3=O)C4=O)CC2)CC1 (stereo not shown) [Compound D846, N-(5-((5-bromo-4-((2-(dimethylphosphoryl)phenyl)amino)pyrimidin-2-yl)amino)-2-(4-(4-(5-(2-(2,6-dioxopiperidin-3-yl)-1-oxoisoindolin-4-yl)pent-4-yn-1-yl)piperazin-1-yl)piperidin-1-yl)-4-(2,2,2-trifluoroethoxy)phenyl)-2-fluoroacrylamide] | 11.9 |
| CP(C)(=O)c1ccccc1Nc1nc(Nc2cc(NC(=O)/C=C/C(F)(F)F)c(N3CCC(N4CCN(CCCC#Cc5cccc6c5CN(C5CCC(=O)NC5=O)C6=O)CC4)CC3)cc2OCC(F)(F)F)ncc1Br (stereo not shown) [Compound D847, (E)-N-(5-((5-bromo-4-((2-(dimethylphosphoryl)phenyl)amino)pyrimidin-2-yl)amino)-2-(4-(4-(5-(2-(2,6-dioxopiperidin-3-yl)-1-oxoisoindolin-4-yl)pent-4-yn-1-yl)piperazin-1-yl)piperidin-1-yl)-4-(2,2,2-trifluoroethoxy)phenyl)-4,4,4-trifluorobut-2-enamide] | 16.3 |
| CCCC#CC(=O)Nc1cc(Nc2ncc(Br)c(Nc3ccccc3P(C)(C)=O)n2)c(OCC(F)(F)F)cc1N1CCC(N2CCN(CCCC#Cc3cccc4c3CN(C3CCC(=O)NC3=O)C4=O)CC2)CC1 (stereo not shown) [Compound D856, N-(5-((5-bromo-4-((2-(dimethylphosphoryl)phenyl)amino)pyrimidin-2-yl)amino)-2-(4-(4-(5-(2-(2,6-dioxopiperidin-3-yl)-1-oxoisoindolin-4-yl)pent-4-yn-1-yl)piperazin-1-yl)piperidin-1-yl)-4-(2,2,2-trifluoroethoxy)phenyl)hex-2-ynamide] | 27.4 |
| C=C(F)C(=O)Nc1cc(Nc2ncc(C(F)(F)F)c(Nc3ccccc3P(C)(C)=O)n2)c(OCC(F)(F)F)cc1N1CCC(N2CCN(CCCC#Cc3cccc4c3CN(C3CCC(=O)NC3=O)C4=O)CC2)CC1 (stereo not shown) [Compound D870, N-(5-((4-((2-(dimethylphosphoryl)phenyl)amino)-5-(trifluoromethyl)pyrimidin-2-yl)amino)-2-(4-(4-(5-(2-(2,6-dioxopiperidin-3-yl)-1-oxoisoindolin-4-yl)pent-4-yn-1-yl)piperazin-1-yl)piperidin-1-yl)-4-(2,2,2-trifluoroethoxy)phenyl)-2-fluoroacrylamide] | 8.87 |

Further lines, results first:

| GI50 [nM] | SMILES |
| --- | --- |
| 36.7 | COc1cc(N2CCC(N3CCN(CCCC#Cc4cccc5c4CN(C4CCC(=O)NC4=O)C5=O)CC3)CC2)c(C)cc1Nc1ncc(Br)c(Nc2ccc3nccnc3c2N(C)S(C)(=O)=O)n1 (stereo not shown) [Compound D932] |
| 12.3 | C=C(F)C(=O)Nc1cc(Nc2ncc(Br)c(Nc3ccc4nccnc4c3NS(C)(=O)=O)n2)c(OC)cc1N1CCC(N2CCN(CCCC#Cc3cccc4c3CN(C3CCC(=O)NC3=O)C4=O)CC2)CC1 (stereo not shown) [Compound D933] |
| 31.9 | C=C(F)C(=O)Nc1cc(Nc2ncc(Br)c(Nc3ccc4nccnc4c3N(C)S(C)(=O)=O)n2)c(OC)cc1N1CCC(N2CCN(CCCC#Cc3cccc4c3CN(C3CCC(=O)NC3=O)C4=O)CC2)CC1 (stereo not shown) [Compound D934] |
